Data as given in patent US20200345725A1, “Methods and Compositions for Treating Cancer” (Omeros Corporation, priority 2019, published 2020).
“And” between values parts separate entries of the source, which are not always exact repeats. Identical values can stand only once. “Also recorded” adds a separate entry of the source. Marks after values point to notes of the source that are not given here.

Tests used:
Format in all cases: cell-based
[1] = target: T1, GPR174 (Homo sapiens, UniProt Q9BXC1); assay: CRE-Luc reporter Gs signaling assay with GPR174; set-up: host or cells: HEK293 or CHO cell lines (ATCC); conditions: for Gs pathway in the presence of GPR174 (CRE-Luc reporter): increasing concentrations of compound; for Fold decrease in Gs signaling activity / EC50 / Human GPR174 CRE Activity: nature of the compound (IA, antagonist, NM): pCRE-Luc reporter; for EC50: multiple values = separate experiments
Target sequence in this assay (Q9BXC1 whole entry): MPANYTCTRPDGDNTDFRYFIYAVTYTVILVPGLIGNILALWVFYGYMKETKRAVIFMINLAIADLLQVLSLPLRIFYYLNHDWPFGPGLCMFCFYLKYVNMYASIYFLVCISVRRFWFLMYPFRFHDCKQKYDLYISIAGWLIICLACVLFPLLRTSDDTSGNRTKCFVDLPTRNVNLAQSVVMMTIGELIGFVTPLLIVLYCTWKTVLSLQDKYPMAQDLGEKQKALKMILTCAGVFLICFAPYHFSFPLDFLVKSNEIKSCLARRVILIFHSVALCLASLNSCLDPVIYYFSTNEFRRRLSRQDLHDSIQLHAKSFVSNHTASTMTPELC

[2] = target: T2, ADBR2 (Homo sapiens, UniProt P07550); assay: CRE-Luc reporter assay with control receptor ADBR2
T2 construct: host or cells: HEK293 or CHO cell lines (ATCC)
Experimental: The DNA/lipofectamine 2000 mix (3000 μL) was incubated at room temperature for 30 minutes and then added into a 10 cm culture dish (Corning, NY) containing 70-90% confluent cultured cells, (HEK293 or CHO cell lines (ATCC, VA)), in 15 mL of media. […] The cells were further incubated at 37° C. for various times. The media were removed and the cells lysed.
Compounds were tested in the reporter system with increasing concentrations of GPR174-interacting compounds.
The DNA/lipofectamine 2000 mix (3000 μL) was incubated at room temperature for 30 minutes and then added into a 10 cm culture dish (Corning, NY) containing 70-90% confluent cultured cells, typically HEK293 or CHO cell lines (ATCC, VA), in 15 mL of media. […] Media (26 mL) were added to the detached cells and 120 μL of transfected cells were transferred to each well on a 96-well plate. Increasing concentration of each compound in DMSO (1.2 μl) was added to the cells after plating into the 96-well plate. The cells were further incubated at 37° C. for various times. The media were removed, and the cells lysed.
ADBR2 is a GPCR, like GPR174, that activates the Gs signaling pathway.

[3] = target: T1, GPR174; assay: Cellular redistribution assay (CRA) for GPR174; conditions: multiple values = separate experiments
Text: One method for identifying compounds capable of modulating a receptor is using a cellular redistribution assay (“CRA”). Exemplary CRA methods are found in U.S. Pat. No. 7,309,576 issued to O'Dowd et al. and in O'Dowd et al., J. Biomol. Screen. 12:175-85,2007. […] Incorporation of the NLS alters the cellular localization of the GPCR, such that the majority of the NLS-modified receptor is present in the cell interior. An NLS-modified GPCR, when interacting with a functionally active compound, is mostly localized on the cell surface. Thus, it becomes possible to identify receptor modulators without knowledge of the endogenous ligand or a surrogate ligand.
The inventors have identified a number of compounds that inhibit GPR174 using a CRA assay similar to that described in U.S. Pat. No. 7,309,576 and in O'Dowd et al., J. Biomol. Screen. 12:175-85, 2007. These compounds are described in detail below.
The inventors used a CRA similar to that described in U.S. Pat. No. 7,309,576 and O'Dowd et al., J. Biomol. Screen. 12:175-85, 2007 to identify compounds that are capable of interacting with GPR174 using a library of approximately 370,000 chemical entities. Briefly described, the CRA assay described in U.S. Pat. No. 7,309,576 involves artificially inserting a NLS into the dopamine D1 receptor (DRD1), which allows the receptor to traffic from the cell membrane to the cell interior, and that the binding of antagonists to the receptor retained the receptor at the cell surface, while removal of the ligand allowed the receptor to continue to internalize from the cell surface. Both antagonists and agonists that selectively bound the receptor retained the receptor on the plasma membrane. GPR174 constructs were generated for use in a CRA-based compound screening assay. From this screen, the inventors initially identified compounds of formula I-VI, as described herein and included in Table 1.
Target sequence in this assay (Q9BXC1 1-292 limits assumed): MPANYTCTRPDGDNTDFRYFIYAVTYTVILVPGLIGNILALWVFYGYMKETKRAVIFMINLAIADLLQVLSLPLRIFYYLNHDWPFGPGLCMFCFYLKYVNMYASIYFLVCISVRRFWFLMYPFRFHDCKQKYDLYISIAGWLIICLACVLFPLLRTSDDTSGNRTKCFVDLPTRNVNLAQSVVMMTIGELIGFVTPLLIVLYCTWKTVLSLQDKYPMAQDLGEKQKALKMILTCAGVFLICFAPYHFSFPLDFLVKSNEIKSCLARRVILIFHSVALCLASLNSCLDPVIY

[4] = test system: human PBMCs; assay: Th1 cytokines in supernatants of stimulated human PBMC, GPR174 inhibitor with adenosine pathway inhibitors (Examples 15, 18-22); conditions: donor 7
Experimental: Human PBMCs, obtained from a human volunteer donor, were dispensed at density of 1×10^6 cells/well in a 96-well flat-bottom plate and were stimulated in triplicate with 1 μg/mL anti-CD3 antibody (UCHT1) and 0.1 μg/mL anti-CD28 antibody (CD28.2) in the presence of:
Supernatants from these cells were collected at 24 hours post-stimulation and the levels of IFN-γ were determined by ELISA assay. Statistical analysis was carried out using one-way ANOVA with Tukey's post-hoc multiple comparison's correction.
Human PBMCs, obtained from a human volunteer donor (donor 1), were dispensed in X-vivo15 media (Lonza) supplemented with Glutamax, penicillin and streptomycin, at density of 1×10^6 cells/well in a 96-well flat-bottom plate and were stimulated with 1 μg/mL anti-CD3 antibody (UCHT1) and 0.1 μg/mL anti-CD28 antibody (CD28.2) in the presence of:
Supernatants from these cells were collected at 24 hours post-stimulation and the levels of IFN-γ, IL-2 and TNF were determined by ELISA assays.
Human PBMCs, obtained from two individual human volunteer donors (donor 2 and donor 3), were dispensed at density of 1×10^6 cells/well in a 96-well flat-bottom plate and were stimulated with 1 μg/mL anti-CD3 antibody (UCHT1) and 0.1 μg/mL anti-CD28 antibody (CD28.2) in the presence of:
Human PBMCs, obtained from twelve individual human volunteer donors were dispensed at density of 1×10^6 cells/well in a 96-well flat-bottom plate and were stimulated in triplicate with 1 μg/mL anti-CD3 antibody (UCHT1) and 0.1 μg/mL anti-CD28 antibody (CD28.2) in the presence of:
A total of 44 experiments using PBMC from 12 healthy donors were tested (9 donors for GM-CSF), with each donor tested in 1 to 8 separate experiments, depending on the donor (1 to 4 experiments each for GM-CSF). […] Cytokines were detected in supernatants with the Legendplex (Biolegend) or the MSB (MesoScale) platforms. […] One-way ANOVA with Tukey's post-hoc multiple comparisons correction was performed to identify significant differences (FC, mean fold change; ****, p<0.0001, ***, p<0.001; **, p<0.01; *, p<0.05, ns, not significant).
Human PBMC (1×10^6 cells/well in a 96-well flat-bottom plate) obtained from donor 3 and donor 6 were stimulated with 1 μg/mL anti-CD3 antibody (UCHT1) and 0.1 μg/mL anti-CD28 antibody (CD28.2) in the presence of:
Supernatants from these cells were collected at 24 hours post-stimulation and the levels of IFN-γ, IL-2, and TNF were determined with the MSD platform (MesoScale Discovery).
Human PBMC (1×10^6 cells/well in a 96-well flat-bottom plate) obtained from donor 7 were stimulated with 1 μg/mL […] (UCHT1) and 0.1 μg/mL anti-CD28 antibody (CD28.2) in the presence of:
Supernatants from these cells were collected at 24 hours post-stimulation and the levels of IFN-γ, IL-2, TNF and GM-CSF were determined with the MSD platform (MesoScale Discovery).
Supernatants from these cells were collected at 24 hours post-stimulation and the levels of IFN-γ, IL-2 and TNF were determined with the MSD platform (MesoScale Discovery).

[5] = high and low concentrations, ZM 0.1 μM
[6] = no ZM, 0.3 μM (compound 20: 3 μM)
[7] = no ZM, 1 μM (compound 20: 10 μM)
[8] = with ZM-241385 0.1 μM, 0.3 μM (compound 20: 3 μM)
[9] = with ZM-241385 0.1 μM, 1 μM (compound 20: 10 μM), label ZM = ZM alone

T2 sequence (P07550 whole entry): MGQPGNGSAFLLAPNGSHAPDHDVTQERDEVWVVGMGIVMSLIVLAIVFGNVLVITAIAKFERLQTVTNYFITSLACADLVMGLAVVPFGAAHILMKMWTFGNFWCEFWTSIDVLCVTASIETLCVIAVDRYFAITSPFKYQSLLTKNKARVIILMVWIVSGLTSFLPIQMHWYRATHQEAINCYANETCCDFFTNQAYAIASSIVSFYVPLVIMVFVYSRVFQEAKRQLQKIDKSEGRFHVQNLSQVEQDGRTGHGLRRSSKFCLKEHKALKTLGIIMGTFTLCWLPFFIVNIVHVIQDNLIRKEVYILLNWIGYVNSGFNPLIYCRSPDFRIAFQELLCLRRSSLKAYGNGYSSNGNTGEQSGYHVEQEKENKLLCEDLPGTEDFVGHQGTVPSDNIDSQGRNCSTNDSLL

| SMILES | Gs pathway in the presence of GPR174 (CRE-Luc reporter) [1] | Fold decrease in Gs signaling activity [1] [fold] | EC50 [1] | Gs pathway in the presence of ADBR2 (CRE-Luc reporter) [2] | EC50 [3] [nM] | Human GPR174 CRE Activity: nature of the compound (IA, antagonist, NM) [1] | other results |
| --- | --- | --- | --- | --- | --- | --- | --- |
| O=[N+]([O-])c1cc(F)c(N2CCCCC2)cc1N1CCN(S(=O)(=O)c2ccccc2)CC1 [compound 11] | inhibited | 3.1 | 500 nM and 1300 nM and 600 nM | did not inhibit | > 1100 | – | synergy with ZM on GM-CSF (greater than the sum of the increases with each inhibitor alone) [4, 5]: synergized with ZM; synergy with ZM on IFN-γ (greater than the sum of the increases with each inhibitor alone) [4, 5]: synergized with ZM; synergy with ZM on IL-2 (greater than the sum of the increases with each inhibitor alone) [4, 5]: synergized with ZM; synergy with ZM on TNF (greater than the sum of the increases with each inhibitor alone) [4, 5]: synergized with ZM; GM-CSF, ratio relative to vehicle control [4, 6]: 2.9*; IFN-γ, ratio relative to vehicle control [4, 6]: 1.9*; IL-2, ratio relative to vehicle control [4, 6]: 1.4*; TNF, ratio relative to vehicle control [4, 6]: 1.7*; GM-CSF, ratio relative to vehicle control [4, 7]: 2.4*; IFN-γ, ratio relative to vehicle control [4, 7]: 1.8*; IL-2, ratio relative to vehicle control [4, 7]: 1.3; TNF, ratio relative to vehicle control [4, 7]: 1.7*; GM-CSF, ratio relative to vehicle control [4, 8]: 4.4*; IFN-γ, ratio relative to vehicle control [4, 8]: 2.9*; IL-2, ratio relative to vehicle control [4, 8]: 1.8*; TNF, ratio relative to vehicle control [4, 8]: 2.6*; GM-CSF, ratio relative to vehicle control [4, 9]: 4.9*; IFN-γ, ratio relative to vehicle control [4, 9]: 3.4*; IL-2, ratio relative to vehicle control [4, 9]: 1.9*; TNF, ratio relative to vehicle control [4, 9]: 3.0* |
| C=C(C)COc1ccc(NC(=O)Nc2ccccc2)cc1 [compound 56] | – | 3 | 500 nM | – | – | inverse agonist | – |
| S=C(NCc1ccco1)Nc1ccc(I)cc1 [compound 59] | – | – | – | – | – | NM (“NM” refers to “non-modulator.”) | – |
| Cc1cc(C(=O)N/N=C/c2cc(Br)ccc2O)c(C)o1 [compound 58] | – | – | – | – | – | GPR174 antagonists or allosteric modulators; also recorded: Antagonist or allosteric modulator | – |

Continued, in another order:

| Gs pathway in the presence of GPR174 (CRE-Luc reporter) [1] | Fold decrease in Gs signaling activity [1] [fold] | EC50 [1] | Gs pathway in the presence of ADBR2 (CRE-Luc reporter) [2] | EC50 [3] [nM] | SMILES | Human GPR174 CRE Activity: nature of the compound (IA, antagonist, NM) [1] | other results |
| --- | --- | --- | --- | --- | --- | --- | --- |
| inhibited | 2.4 | 300 nM and 500 nM | did not inhibit | > 700 | CCOC(=O)N1CCN(c2cc(N3CCCCC3)c(F)cc2[N+](=O)[O-])CC1 [compound 7] | – | – |
| inhibited | 10.2 | 1000 nM and 1500 nM | did not inhibit | – | COc1ccc(C2C3=C(CCCC3=O)NC3=C2C(=O)c2ccccc23)cc1 (centres unmarked) [compound 22] | – | – |
| – | 2.1 | 700 nM and 500 nM | – | > 2000 | CCC(=O)N1CCN(c2cc(N3CCCCC3)c(F)cc2[N+](=O)[O-])CC1 [compound 9] | – | – |
| – | 2.1 | 800 nM | – | – | CC(C)C(=O)N1CCN(c2cc(N3CCCCC3C)c(F)cc2[N+](=O)[O-])CC1 (centres unmarked) [compound 16] | – | – |
| – | 2.4 | 900 nM | – | > 1200 | CCCC(=O)N1CCN(c2cc(N3CCCCC3)c(F)cc2[N+](=O)[O-])CC1 [compound 5] | – | – |
